Experimental data: US8404855B2, “Substituted enaminocarbonyl compounds” (Bayer CropScience AG, priority 2006, dated 2013)

Tests used:
[1] = system: green peach aphid (Myzus persicae); assay: Myzus persicae test (MYZUPE T), leaf dip; type: in vivo; details: 20 ppm; cabbage leaves dipped; comparison with prior art
Experimental: (§1) After the desired period of time, the kill in % is determined.

[2] = system: green peach aphid (Myzus persicae); assay: Myzus test (MYZUPE spray treatment); type: in vivo
Text: In this test, for example, the following compounds of the Preparation Examples show good activity: see table

[3] = system: green peach aphid (Myzus persicae); assay: Myzus persicae test, hydroponic treatment (MYZUPE sys.); type: in vivo; details: pea plant in treated water
Experimental: The preparation of active compound is mixed with water. The stated concentration refers to the amount of active compound per volume unit of water (mg/l=ppm). The treated water is filled into containers housing a pea plant (Pisum sativum) which is then infected with the green peach aphid (Myzus persicae).
as §1

[4] = system: green peach aphid (Myzus persicae); assay: Myzus test; oral (MYZUPE O); type: in vivo
Lucilia cuprina larvae = assay: Lucilia cuprina test (LUCICU); type: in vivo; details: treated horse meat
Experimental: as §1

[5] = system: cotton aphid (Aphis gossypii); assay: Aphis gossypii test (APHIGO), leaf dip; type: in vivo; details: cotton leaves dipped
Experimental: as §1

[6] = system: adult fleas (Ctenocephalides felis); assay: Ctenocephalides felis; oral (CTECFE); type: in vivo; details: 100 ppm in citrated cattle blood
Experimental: Part of the concentrate is diluted with citrated cattle blood, and the desired concentration is prepared.
20 unfed adult fleas (Ctenocephalides felis) are placed into a chamber whose top and bottom ends are closed with gauze. A metal cylinder whose bottom end is closed with parafilm is placed onto the chamber. The cylinder contains the blood/active compound preparation, which can be taken up by the fleas through the parafilm membrane. The blood is warmed to 37° C., but the flea chamber is at room temperature.
as §1

Boophilus microplus = Boophilus microplus test (BOOPMI injection); type: in vivo; details: 20 ppm (so in the source), 100% = no tick has laid fertile eggs, comparison with prior art
Experimental: The solution of active compound is injected into the abdomen (Boophilus microplus), and the animals are transferred into dishes and kept in a temperature-controlled room.
100% means that no tick has laid any fertile eggs.

Meloidogyne incognita = assay: Meloidogyne test (MELGIN spray treatment); type: in vivo; details: 20 ppm; gall formation, 100% = no galls; comparison with prior art
Experimental: Containers are filled with sand, active compound solution, Meloidogyne incognita egg/larvae suspension and lettuce seeds. The lettuce seeds germinate and the plants develop. On the roots, galls are formed.
After the desired period of time, the nematicidal activity is determined by the formation of galls in %. 100% means that no galls were found; 0% means that the number of galls on the treated plants corresponds to that of the untreated controls.

[7] = system: larvae of the mustard beetle (Phaedon cochleariae); assay: Phaedon test (PHAECO spray treatment); details: 500 g/ha; Chinese cabbage leaf disks sprayed
[8] = 0.8 ppm, comparison with prior art
[9] = 4 ppm, comparison with prior art
[10] = 500 g/ha, Chinese cabbage leaf disks sprayed

O=C1C=C(N(Cc2ccc(Cl)nc2)CC(F)F)CO1 [Example 1, 4-[[(6-Chloropyridin-3-yl)methyl](2,2-difluoroethyl)amino]furan-2(5H)-one]
Kill rate in % after 6 days [1]: 95% | Kill rate in % after 5 days ([2]; 4 g/ha, leaf disks sprayed, comparison with prior art): 80% | Kill rate in % after 6 days [3, 8]: 100% | Kill rate in % after 5 days ([4]; 0.032 ppm, oral, comparison with prior art): 100% | Kill rate in % after 2 days (Lucilia cuprina larvae; [9]): 100% | Kill rate in % after 6 days [5, 8]: 60% | Kill rate in % after 6 days [5, 9]: 98%

O=C1C=C(N(CCCF)Cc2ccc(Cl)nc2)CO1 [Example 2, 4-[[(6-Chloropyridin-3-yl)methyl](3-fluoro-n-propyl)amino]furan-2(5H)-one]
Kill rate in % after 5 days [2, 10]: 100% | Kill rate in % after 5 days ([4]; 20 ppm, oral uptake by sucking): 100%

O=C1C=C(N(CC=C(Cl)Cl)Cc2ccc(Cl)nc2)CO1 [Example 3, 4-[[(6-Chloropyridin-3-yl)methyl](3,3-dichloroprop-2-en-1-yl)amino]furan-2(5H)-one]
Kill rate in % after 5 days [2, 10]: 100%

O=C1C=C(N(CCF)Cc2ccc(Cl)nc2)CO1 [Example 4, 4-[[(6-Chloropyridin-3-yl)methyl](2-fluoroethyl)amino]furan-2(5H)-one]
Kill rate in % after 1 day ([6]; comparison with prior art): 30% | Kill rate in % after 6 days [1]: 80% | Kill rate in % after 6 days ([3]; 0.16 ppm, comparison with prior art): 55% | Kill rate in % after 6 days [3, 8]: 100% | Kill rate in % after 7 days (Boophilus microplus): 100% | Kill rate in % after 14 days (Meloidogyne incognita): 70% | Kill rate in % after 6 days [5, 9]: 99%

CC1OC(=O)C=C1N(Cc1ccc(Cl)nc1)CC(F)F (centres unmarked) [Example 6, 4-[[(6-Chloropyridin-3-yl)methyl](2,2-difluoroethyl)amino]-5-methylfuran-2(5H)-one]
Kill rate in % after 5 days [2, 10]: 100%

O=C1OCC(N(Cc2ccc(Cl)nc2)CC(F)F)=C1Br [Example 7, 3-Bromo-4-[[(6-chloropyridin-3-yl)methyl](2,2-difluoroethyl)amino]furan-2(5H)-one]
Kill rate in % after 5 days [2, 10]: 100%

O=C1OCC(N(Cc2ccc(Cl)nc2)CC(F)F)=C1Cl [Example 8, 3-Chloro-4-[[(6-chloropyridin-3-yl)methyl](2,2-difluoroethyl)amino]furan-2(5H)-one]
Kill rate in % after 5 days [2, 10]: 100% | Kill rate in % after 6 days ([3]; 4 ppm): 98% | Kill rate in % after 2 days (Lucilia cuprina larvae; 100 ppm): 100% | Kill rate in % after 6 days ([5]; 20 ppm): 100%

O=C1C=C(N(Cc2ccc(F)nc2)CC(F)F)CO1 [Example 15]
Kill rate in % after 7 days [7]: 100% | Kill rate in % after 2 days [6]: 90% | Kill rate in % after 5 days [2, 10]: 100% | Kill rate in % after 6 days ([3]; 4 ppm): 100% | Kill rate in % after 2 days (Lucilia cuprina larvae; 100 ppm): 90% | Kill rate in % after 6 days ([5]; 100 ppm): 100%

O=C1C=C(N(Cc2ccc(Cl)nc2)CC(F)Cl)CO1 (centres unmarked) [Example 17, 4-[[(6-chloropyridin-3-yl)methyl](2-chloro-2-fluoroethyl)amino]furan-2(5H)-one]
Kill rate in % after 7 days [7]: 100% | Kill rate in % after 5 days [2, 10]: 100%

(E/Z)-4-[[(6-Chloropyridin-3-yl)methyl](2-fluorovinyl)amino]-5-methylfuran-2(5H)-one [Example 5]
Kill rate in % after 5 days [2, 10]: 100%
